PubChem BioAssay AID330 (DTP/NCI, 2004)
“And” between values parts separate entries of the source, which are not always exact repeats. Identical values can stand only once. Inconclusive results and toxic doses are left out.

Test system: P388 leukemia ip, CD2F1 mice, survival T/C
Experiment: NCI In Vivo Anticancer Drug Screen. Data for tumor model P388 Leukemia (intraperitoneal) in CD2F1 (CDF1) mice
Details: endpoint: median survival time, higher = longer survival
Procedure, shortened: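 Mice carrying the transplanted tumor received test compound or vehicle. Survival was recorded in each group, and the value is the treated-group measurement divided by that of the vehicle-treated control group.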

[1] = dose: 50.0 mg/kg/injection, schedule: Q01DX005 (ip), vehicle: saline with Tween-80
[2] = dose: 100.0 mg/kg/injection, schedule: Q01DX005 (ip), vehicle: saline with Tween-80
[3] = dose: 200.0 mg/kg/injection, schedule: Q01DX005 (ip), vehicle: saline with Tween-80
[4] = dose: 100.0 mg/kg/injection, schedule: Q04DX002 (ip), vehicle: Klucel (hydroxypropylcellulose) (HPC)
[5] = dose: 200.0 mg/kg/injection, schedule: Q04DX002 (ip), vehicle: Klucel (hydroxypropylcellulose) (HPC)
[6] = dose: 400.0 mg/kg/injection, schedule: Q04DX002 (ip), vehicle: Klucel (hydroxypropylcellulose) (HPC)
[7] = dose: 50.0 mg/kg/injection, schedule: Q01DX009 (ip), vehicle: Klucel (hydroxypropylcellulose) (HPC)
[8] = dose: 100.0 mg/kg/injection, schedule: Q01DX009 (ip), vehicle: Klucel (hydroxypropylcellulose) (HPC)
[9] = dose: 60.0 mg/kg/injection, schedule: Q01DX005 (ip), vehicle: saline with Tween-80
[10] = dose: 120.0 mg/kg/injection, schedule: Q01DX005 (ip), vehicle: saline with Tween-80
[11] = dose: 240.0 mg/kg/injection, schedule: Q01DX005 (ip), vehicle: saline with Tween-80
[12] = dose: 25.0 mg/kg/injection, schedule: Q01DX005 (ip), vehicle: Klucel (hydroxypropylcellulose) (HPC)
[13] = dose: 50.0 mg/kg/injection, schedule: Q01DX005 (ip), vehicle: Klucel (hydroxypropylcellulose) (HPC)

## O=C1OCC[C@@H]1O
dose: 60.0 mg/kg/injection, schedule: Q01DX005 (ip), vehicle: saline
  T/C: 101 % of control
dose: 120.0 mg/kg/injection, schedule: Q01DX005 (ip), vehicle: saline
  T/C: 101 % of control
dose: 240.0 mg/kg/injection, schedule: Q01DX005 (ip), vehicle: saline
  T/C: 97 % of control

## COC(=O)CC(OC)c1nc(C(=O)OC)c(C)c(=O)[nH]1 (configuration not stated)
dose: 4.0 mg/kg/injection, schedule: Q01DX009 (ip), vehicle: water
  T/C: 111 % of control
dose: 8.0 mg/kg/injection, schedule: Q01DX009 (ip), vehicle: water
  T/C: 101 % of control
dose: 16.0 mg/kg/injection, schedule: Q01DX009 (ip), vehicle: water
  T/C: 96 % of control
dose: 32.0 mg/kg/injection, schedule: Q01DX009 (ip), vehicle: water
  T/C: 99 % of control
dose: 64.0 mg/kg/injection, schedule: Q01DX009 (ip), vehicle: water
  T/C: 102 % of control
dose: 128.0 mg/kg/injection, schedule: Q01DX009 (ip), vehicle: water
  T/C: 105 % of control

## CC(C)(C)NCC(O)c1ccc(O)c(CO)n1 (configuration not stated)
dose: 50.0 mg/kg/injection, schedule: Q01DX005 (ip), vehicle: saline
  T/C: 95 % of control
dose: 100.0 mg/kg/injection, schedule: Q01DX005 (ip), vehicle: saline
  T/C: 102 % of control
dose: 200.0 mg/kg/injection, schedule: Q01DX005 (ip), vehicle: saline
  T/C: 95 % of control

## CC1(C)OC1(C(=O)C=[N+]=[N-])c1ccccc1 (configuration not stated)
dose: 25.0 mg/kg/injection, schedule: Q01DX005 (ip), vehicle: saline with Tween-80
  T/C: 96 % of control
[1]
  T/C: 99 % of control
[2]
  T/C: 96 % of control
[3]
  T/C: 103 % of control

## O=C(NCCc1ccccn1)c1cc(Cl)ccc1O
[4]
  T/C: 95 % of control
[5]
  T/C: 103 % of control
[6]
  T/C: 100 % of control

## C#CC(C)(O)C(C)(C)C (configuration not stated)
dose: 25.0 mg/kg/injection, schedule: Q01DX009 (ip), vehicle: saline
  T/C: 88 % of control
dose: 50.0 mg/kg/injection, schedule: Q01DX009 (ip), vehicle: saline
  T/C: 98 % of control
dose: 100.0 mg/kg/injection, schedule: Q01DX009 (ip), vehicle: saline
  T/C: 98 % of control

## Cn1c2ccc(Cl)cc2c2oc(-c3nn[nH]n3)cc(=O)c21
[1]
  T/C: 102 % of control
[2]
  T/C: 107 % of control
[3]
  T/C: 97 % of control

## CCCCOP(O)(=S)OCCCC.[Sm]
dose: 100.0 mg/kg/injection, schedule: Q01DX001 (ip), vehicle: saline with Tween-80
  T/C: 92 % of control
dose: 200.0 mg/kg/injection, schedule: Q01DX001 (ip), vehicle: saline with Tween-80
  T/C: 116 % of control

## Cc1ccc2c(c1)sc1nncn12
[7]
  T/C: 94 % of control
[8]
  T/C: 105 % of control

## CC(C)=CCCC(C)C1CCC2(CO2)C2CC=C(C)C2C1O (configuration not stated)
dose: 20.0 mg/kg/injection, schedule: Q01DX009 (ip), vehicle: Klucel (hydroxypropylcellulose) (HPC)
  T/C: 102 % of control
dose: 40.0 mg/kg/injection, schedule: Q01DX009 (ip), vehicle: Klucel (hydroxypropylcellulose) (HPC)
  T/C: 96 % of control
dose: 80.0 mg/kg/injection, schedule: Q01DX009 (ip), vehicle: Klucel (hydroxypropylcellulose) (HPC)
  T/C: 102 % of control
dose: 160.0 mg/kg/injection, schedule: Q01DX009 (ip), vehicle: Klucel (hydroxypropylcellulose) (HPC)
  T/C: 99 % of control

## CCCCCCCCCCCCCCCCc1c(C(=O)OC)nc(N)[nH]c1=O
dose: 3.75 mg/kg/injection, schedule: Q01DX005 (ip), vehicle: saline with Tween-80
  T/C: 99 % of control
dose: 7.5 mg/kg/injection, schedule: Q01DX005 (ip), vehicle: saline with Tween-80
  T/C: 100 % of control
dose: 15.0 mg/kg/injection, schedule: Q01DX005 (ip), vehicle: saline with Tween-80
  T/C: 103 % of control

## O=C1CS(=O)(=O)CN1N1CS(=O)(=O)CC1=O
[1]
  T/C: 102 % of control
[2]
  T/C: 98 % of control
[3]
  T/C: 98 % of control

## Cc1cc(=O)oc2c(-c3ccccc3)nnc(Cl)c12
dose: 60.0 mg/kg/injection, schedule: Q01DX005 (ip), vehicle: Klucel (hydroxypropylcellulose) (HPC)
  T/C: 98 % of control
dose: 120.0 mg/kg/injection, schedule: Q01DX005 (ip), vehicle: Klucel (hydroxypropylcellulose) (HPC)
  T/C: 96 % of control
dose: 240.0 mg/kg/injection, schedule: Q01DX005 (ip), vehicle: Klucel (hydroxypropylcellulose) (HPC)
  T/C: 95 % of control

## C=CCSc1nc2ccc(N=Cc3ccc([N+](=O)[O-])cc3)cc2s1
dose: 6.25 mg/kg/injection, schedule: Q01DX009 (ip), vehicle: Klucel (hydroxypropylcellulose) (HPC)
  T/C: 99 % of control
dose: 12.5 mg/kg/injection, schedule: Q01DX009 (ip), vehicle: Klucel (hydroxypropylcellulose) (HPC)
  T/C: 98 % of control
dose: 25.0 mg/kg/injection, schedule: Q01DX009 (ip), vehicle: Klucel (hydroxypropylcellulose) (HPC)
  T/C: 105 % of control

## Cn1c(=O)c2nc(-c3ccc(Cl)c(Cl)c3)cnc2n(C)c1=O
[4]
  T/C: 96 % of control
[5]
  T/C: 95 % of control
[6]
  T/C: 98 % of control

## COC(/C=N/OC(=O)c1ccccc1)c1ccccc1 (configuration not stated)
dose: 25.0 mg/kg/injection, schedule: Q04DX003 (ip), vehicle: saline with Tween-80
  T/C: 98 % of control and 90 % of control
dose: 50.0 mg/kg/injection, schedule: Q04DX003 (ip), vehicle: saline with Tween-80
  T/C: 92 % of control

## N=c1c2ncn3c(=O)n(-c4ccccc4)c(nc(=O)n1-c1ccccc1)c23
[9]
  T/C: 101 % of control
[10]
  T/C: 100 % of control
[11]
  T/C: 98 % of control

## COc1cc2c(c(OC)c1OC)CCC1C(=O)NN=C21 (configuration not stated)
dose: 12.5 mg/kg/injection, schedule: Q04DX003 (ip), vehicle: Klucel (hydroxypropylcellulose) (HPC)
  T/C: 111 % of control
dose: 25.0 mg/kg/injection, schedule: Q04DX003 (ip), vehicle: Klucel (hydroxypropylcellulose) (HPC)
  T/C: 104 % of control
dose: 50.0 mg/kg/injection, schedule: Q04DX003 (ip), vehicle: Klucel (hydroxypropylcellulose) (HPC)
  T/C: 111 % of control

## COc1ccc(CCNCc2cccc(O)c2)cc1OC
[7]
  T/C: 90 % of control
[8]
  T/C: 92 % of control
dose: 200.0 mg/kg/injection, schedule: Q01DX009 (ip), vehicle: Klucel (hydroxypropylcellulose) (HPC)
  T/C: 88 % of control

## C=C1C(=O)OC2C1CCC(C)C1C=CC(=O)C12C (configuration not stated)
dose: 25.0 mg/kg/injection, schedule: Q04DX002 (ip), vehicle: saline with Tween-80
  T/C: 115 % of control
dose: 50.0 mg/kg/injection, schedule: Q04DX002 (ip), vehicle: saline with Tween-80
  T/C: 114 % of control
dose: 100.0 mg/kg/injection, schedule: Q04DX002 (ip), vehicle: saline with Tween-80
  T/C: 119 % of control

## CCCCCC(C)(O)C1=NCCN1 (configuration not stated)
dose: 12.5 mg/kg/injection, schedule: Q01DX005 (ip), vehicle: Klucel (hydroxypropylcellulose) (HPC)
  T/C: 97 % of control
[12]
  T/C: 95 % of control
[13]
  T/C: 100 % of control and 93 % of control

## Cc1ccc(S(=O)(=O)NN=c2cccccc2)cc1
dose: 100.0 mg/kg/injection, schedule: Q01DX001 (ip), vehicle: DMSO
  T/C: 101 % of control
dose: 200.0 mg/kg/injection, schedule: Q01DX001 (ip), vehicle: DMSO
  T/C: 97 % of control

## Cc1cc2nc(-c3cc4cc(Cl)cc(Cl)c4oc3=O)[nH]c2cc1C
[12]
  T/C: 98 % of control
[13]
  T/C: 95 % of control
dose: 100.0 mg/kg/injection, schedule: Q01DX005 (ip), vehicle: Klucel (hydroxypropylcellulose) (HPC)
  T/C: 96 % of control
dose: 200.0 mg/kg/injection, schedule: Q01DX005 (ip), vehicle: Klucel (hydroxypropylcellulose) (HPC)
  T/C: 96 % of control

## O=C(CCCc1ccc(N(CCCl)CCCl)cc1)OCCOc1ccccc1
dose: 12.5 mg/kg/injection, schedule: Q01DX009 (ip), vehicle: saline with Tween-80
  T/C: 155 % of control
dose: 25.0 mg/kg/injection, schedule: Q01DX009 (ip), vehicle: saline with Tween-80
  T/C: 223 % of control
dose: 50.0 mg/kg/injection, schedule: Q01DX009 (ip), vehicle: saline with Tween-80
  T/C: 174 % of control and 200 % of control

## Cc1ccc(N2C(=O)CCSC2=S)cc1Br
dose: 50.0 mg/kg/injection, schedule: Q01DX009 (ip), vehicle: suspension in saline
  T/C: 103 % of control
dose: 100.0 mg/kg/injection, schedule: Q01DX009 (ip), vehicle: suspension in saline
  T/C: 107 % of control
dose: 200.0 mg/kg/injection, schedule: Q01DX009 (ip), vehicle: suspension in saline
  T/C: 107 % of control

## CC(C)(C)C1CC[N+](=C(O[B-](F)(F)F)c2ccccc2)CC1 (configuration not stated)
[9]
  T/C: 100 % of control
[10]
  T/C: 103 % of control

## Cc1ccc(C2COc3cc(O)c(O)cc3C2)cc1 (configuration not stated)
[9]
  T/C: 103 % of control
[10]
  T/C: 105 % of control
[11]
  T/C: 117 % of control
